How the values were obtained:
HL-60 = test: Growth inhibition of human HL60 cells after 72 hrs by trypan blue assay; assay type: functional; conditions: HL-60, 72 h
K562 = test: Growth inhibition of human K562 cells after 72 hrs by trypan blue assay; assay type: functional; conditions: K562, 72 h

GI50 (HL-60) | GI50 (K562) | SMILES
6.9 µM | 10.1 µM | CC(=O)O[C@H]1C/C(C)=C/[C@@H](O)[C@H](O)[C@H]2[C@H](O)O[C@]13[C@@H]2CC3(C)C
8.5 µM | 12.3 µM | CO[C@@H]1[C@H]2[C@H](O)O[C@@]3([C@@H](OC(C)=O)C/C(C)=C/[C@H]1O)[C@@H]2CC3(C)C
> 100 µM | > 100 µM | CC(=O)O[C@H]1C/C(C)=C/[C@@H](O)/C=C(/CO)[C@H]2CC(C)(C)[C@]12O
